{"source": "patent US20020169264A1", "about": "“Polymers incorporating peptides” (The Council of the Queensland Institute of Medical Research, priority 1997, published 2002)", "key": {"[1]": {"system": "lymph node T cells", "test": "T cell proliferation assay, peptide monomer-primed lymph node T cells", "assay_type": "cell-based, mice", "conditions": "FIG. 10", "description": "Lymph node T cells were derived from pooled inguinal and popliteal lymph node cell suspensions of mice primed seven days previously with peptide. T cells were enriched by passage through nylon wool columns^24.\n(§1) Female Balb/c mice, 6 to 8 weeks of age, were used. For antibody studies, animals were inoculated i.p. with synthetic peptide in monomeric or polymeric form and emulsified in complete Freund's adjuvant (CFA). Mice received 5 or 0.5 nmoles of monomeric peptide or the equivalent number of moles of determinant within a polymer. For T-cell studies, mice were inoculated s.c. in the hind footpads with a total of 10 nmoles of T-cell determinant in CFA.\nT cells were cultured (at a concentration of 3×10^5 cells/well for lymph node T cells and 1×10^4/well for the T-cell clone) in 96-well nmicrotitre trays (Nunc, Denmark) in the presence of syngenic γ-irradiated (2,200 R, ^60Co source) spleen cells as a source of antigen presenting cells, together with antigen in a total volume of 250μl^22, 23, The culture medium was RPMI 1640 supplemented with 10% heat inactivated (56° C., 30min) fetal calf serum, 2mM glutamine, 2mM sodium pyruvate, 0.1mM 2-mercaptoethanol, 30μg/ml gentamicin, 100 I.U./ml penicillin and 100μg/ml streptomycin. […] Cells were then harvested onto glass fibre filters and incorporation of ^3H-thymidine was measured on a Hewlett Packard Matrix 9600 direct β-counter."}, "[2]": {"system": "Balb/c mice", "test": "Immunogenicity in Balb/c mice, antibody titre by ELISA", "assay_type": "in vivo", "conditions": "for antibody response (levels of antibody elicited): 0.5 nmole dose, FIG. 11B", "description": "as §1\nEnzyme-linked immunosorbent assays (ELISAs) were performed as described^23 using microtitre plates coated with a solution of 5μg/ml peptide or polymer antigen. Bound antibody was detected by incubation with horseradish peroxidase-conjugated rabbit immunoglobulin (Ig) directed against mouse Ig (DAKO, Denmark) for 1.5h followed, after washing, with substrate (0.2mM 2,2′-azino-bis 3-ethylbenzthiazoline-sulphonic acid in 50mM citric acid pH4.0 containing 0.004% v/v hydrogen peroxide). The absorbance at a wavelength of 405nm was determined using a Labsystems Multiscan Multisoft microplate reader (Pathtech Diagnostics Pty. Ltd., Aust.) and antibody titres were expressed as the reciprocal of the antibody dilution giving an absorbance of 0.25, which corresponds to at least five times the background value."}, "[3]": {"system": "MAb 2/1", "test": "ELISA, MAb 2/1 binding to coated peptide or polymer", "set-up": "species or system mouse"}, "[4]": {"system": "MAb 1/1", "test": "ELISA, MAb 1/1 binding to coated peptide or polymer", "set-up": "species or system mouse", "conditions": "persulphate to peptide ratios 0.1:1 to 1,000:1, in the presence of acrylamide; FIG. 8"}, "[5]": {"system": "virus infected P815 mastocytoma cells", "assay_type": "in vivo, BALB/c mice"}}, "note": "Where two headings read alike, the source gives them in different places. Where no end group is shown, it is not given here. The star is where a group is joined. Acryloyl = C=CC(=O)*; Ahx = NCCCCCC(=O)O", "data": [{"substance": "ALNNRFQIKGVELKS [P3]", "values": [{"measurement": "recognition by polyclonal lymph node T cells raised against monomeric T-cell determinant peptide", "setting": "[1]", "value": "equal efficiency"}]}, {"substance": "GMRNVPERKQT [P2]", "values": [{"measurement": "antibody response (levels of antibody elicited)", "setting": "[2]", "value": "no antibody"}]}, {"substance": "PKYVKQNTLKLATGMRNVPEKQT [P5]", "values": [{"measurement": "antigenic activity (MAb 2/1 binding) after exposure to ammonium persulphate", "setting": "[3]; persulphate to peptide ratios 0.1:1 to 1,000:1, in the presence of acrylamide, FIG. 8", "value": "little or no effect on antigenic activity"}, {"measurement": "primary antibody response", "setting": "[2]; 5 nmoles of peptide epitope, i.p. in CFA", "value": "very weak"}, {"measurement": "rise of antibody response following the second inoculation", "setting": "[2]; 5 nmoles of peptide epitope, secondary vs primary", "value": "~10", "unit": "fold"}, {"measurement": "antigenic activity (MAb 1/1 binding) after exposure to ammonium persulphate", "setting": "[4]", "value": "little or no effect on antigenic activity"}]}, {"substance": "TLKLATG [P1]", "values": [{"measurement": "binding of MAb 2/1 to coated polymers", "setting": "[3]; FIG. 9", "value": "slightly reduced ability to interact with MAb"}, {"measurement": "antibody response (levels of antibody elicited)", "setting": "[2]", "value": "no antibody"}]}, {"substance": "TYQRTRALV [P7]", "values": [{"measurement": "CTL response (priming)", "setting": "[5]; mouse, in vivo, sc", "value": "did"}]}, {"substance": "acryloyl-Ahx-CTL: acryloyl-Ahx derivative of the CTL epitope TYQRTRALV, not polymerised ({Acryloyl-Ahx}-TYQRTRALV)", "values": [{"measurement": "CTL response (priming)", "setting": "[5]; 10 μg peptide s.c. in CFA, virus infected targets, FIG. 15", "value": "did not induce a CTL response"}]}]}
